Patent US8410085B2, “Phospholipid compositions and uses thereof” (Baylor College of Medicine, priority 2007, dated 2013)
“And” between values parts separate entries of the source, which are not always exact repeats. Identical values can stand only once. “Also recorded” adds a separate entry of the source.

Columns and labels:
LRH-1 [1] = molecular target: T1, LRH-1 (Homo sapiens, UniProt O00482); experiment: mouse SHP promoter (mSHP1080-Luc) activation by hLRH-1 in HeLa cells; conditions: 100 μM
LXRα = LXRα (Homo sapiens, UniProt Q13133); experiment: nuclear receptor cotransfection (RE-tk-luc), HeLa cells; conditions: 100 μM
[2] = test system: hepatic expression of Cyp7A1, Cyp8B1, mSR-BI, SHP; experiment: hepatic gene expression (Q-PCR) in wild type mice after oral gavage; type: in vivo, mouse; conditions: 100 mg/kg oral, five times over three days
Text: (§1) Total liver RNA was isolated and prepared for the cDNA. […] Total liver RNA was isolated and prepared for cDNA.

RXRα = RXRα (Homo sapiens, UniProt P19793); experiment: nuclear receptor cotransfection (RE-tk-luc), HeLa cells; conditions: 100 μM
PPARγ = PPARγ (Homo sapiens, UniProt P37231); experiment: as above; conditions: 100 μM
human CAR = human CAR (Homo sapiens, UniProt Q14994); experiment: as above; conditions: 100 μM
RARβ = RARβ (Homo sapiens, UniProt P10826); experiment: as above; conditions: 100 μM
GST-hLRH-1 LBD / SRC-3 = GST-hLRH-1 LBD / SRC-3 (Homo sapiens, UniProt O00482); experiment: GST pulldown, GST-hLRH-1 LBD with in vitro translated 35S-labeled SRC-3
[3] = molecular target: hLRH-1 LBD / SRC-3 receptor interaction domain (Homo sapiens, UniProt O00482); experiment: mammalian two-hybrid assay, VP16-hLRH1 LBD with Gal4-SRC3 RID in HeLa cells
mouse LRH-1 = mouse LRH-1 (Mus musculus, UniProt P45448); experiment: mouse LRH-1 transactivation, reporter cotransfection
LRH-1 [4] = molecular target: T1, LRH-1; experiment: Oct4 proximal promoter (Oct4-PP Luc) activation by hLRH-1 in COS-1 cells
wild type male mice = experiment: bile acids, serum glucose and NEFA in wild type mice after oral gavage; type: in vivo, mouse; conditions: 100 mg/kg oral
LRH-1 [5] = molecular target: T1, LRH-1; experiment: human LRH-1 transactivation, HeLa cotransfection with LRH-1/SF-1 response element luciferase reporter; type: cell-based; set-up: expressed in transfected cells; host or cells: HeLa (A1, A3); conditions: HeLa cells
Protocol: Controls (vector only and no lipid) are as indicated. […] Cells were treated with 100 μM of the indicated PCs and luciferase expression (RLU, relative light units) was normalized using an internal β-galactosidase control. vec, empty vector; −, ethanol solvent control.
HeLa cells were transfected with an hLRH-1 expression vector along with mSHP1080-Luc reporter. […] Oct4-PPmut Luc is identical to Oct4-PP Luc except for the insertion of point mutations in the DR0 element. […] HeLa cells were cotransfected with various nuclear receptors and the reporter plasmid (RE-tk-luc). […] Data are expressed for each reporter as fold activation of normalized luciferase activity relative to veh-treated cells.
A number of different phosphatidylcholine (PC) species were screened for effects on human LRH-1 transactivation in HeLa cell cotransfections with a synthetic luciferase reporter containing multiple copies of an LRH-1/SF-1 response element.

FXR = FXR (Homo sapiens, UniProt Q96RI1); experiment: nuclear receptor cotransfection (RE-tk-luc), HeLa cells; conditions: 100 μM
LRH-1 [6] = molecular target: T1, LRH-1; experiment: LRH-1 Luc reporter in C3A HepG2 cells (endogenous hLRH-1); conditions: C3A/HepG2 cells or cells with non-target control siRNAs
SF-1 = SF-1 (Homo sapiens, UniProt Q13285); experiment: SF-1 transactivation, reporter cotransfection in HeLa cells; conditions: 100 μM
LRH-1 [7] = experiment: hepatic gene expression in LRH-1 f/f mice infected with Ad-Cre; type: in vivo, mouse; conditions: 100 mg/kg oral, 100 mg/kg
Text: as §1

PPARδ = PPARδ (Homo sapiens, UniProt Q03181); experiment: nuclear receptor cotransfection (RE-tk-luc), HeLa cells; conditions: 100 μM
mouse CAR = mouse CAR (Mus musculus, UniProt O35627); experiment: as above; conditions: 100 μM
ERα = ERα (Homo sapiens, UniProt P03372); experiment: as above; conditions: 100 μM
PPARα = PPARα (Homo sapiens, UniProt Q07869); experiment: as above; conditions: 100 μM
human PXR = human PXR (Homo sapiens, UniProt O75469); experiment: as above; conditions: 100 μM
TRβ = TRβ (Homo sapiens, UniProt P10828); experiment: as above; conditions: 100 μM
LRH-1 [8] = molecular target: T1, LRH-1; conditions: CV-1 and HEK293T cells, compared with HeLa
LRH-1 target Cyp8B1 = experiment: hCYP8B1 expression by Q-PCR in C3A HepG2 cells

T1 sequence (O00482 whole entry): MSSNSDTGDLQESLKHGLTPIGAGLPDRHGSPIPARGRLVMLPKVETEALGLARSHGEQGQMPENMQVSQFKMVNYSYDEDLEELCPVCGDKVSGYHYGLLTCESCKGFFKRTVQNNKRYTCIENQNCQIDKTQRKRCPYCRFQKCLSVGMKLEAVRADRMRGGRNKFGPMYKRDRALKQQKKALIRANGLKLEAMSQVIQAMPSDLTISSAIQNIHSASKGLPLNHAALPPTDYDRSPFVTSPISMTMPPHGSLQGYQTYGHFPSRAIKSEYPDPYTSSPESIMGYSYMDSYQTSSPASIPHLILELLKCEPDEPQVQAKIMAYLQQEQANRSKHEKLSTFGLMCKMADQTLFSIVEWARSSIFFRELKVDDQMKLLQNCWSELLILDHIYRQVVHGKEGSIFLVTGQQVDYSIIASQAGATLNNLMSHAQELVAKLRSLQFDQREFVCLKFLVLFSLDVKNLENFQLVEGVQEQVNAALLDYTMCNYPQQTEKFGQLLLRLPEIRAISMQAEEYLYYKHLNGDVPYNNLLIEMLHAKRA
Sequence of GST-hLRH-1 LBD / SRC-3 (O00482 300-539 limits assumed): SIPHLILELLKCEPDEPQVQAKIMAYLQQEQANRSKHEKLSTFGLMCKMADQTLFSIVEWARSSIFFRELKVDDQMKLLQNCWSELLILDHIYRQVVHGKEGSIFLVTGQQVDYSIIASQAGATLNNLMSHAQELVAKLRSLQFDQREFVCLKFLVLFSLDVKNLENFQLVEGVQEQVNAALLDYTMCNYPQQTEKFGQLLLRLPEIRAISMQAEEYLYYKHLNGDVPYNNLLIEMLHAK
Sequence of GST-hLRH-1 LBD / SRC-3 (Q9Y6Q9 whole entry partner, the tested form may be a part): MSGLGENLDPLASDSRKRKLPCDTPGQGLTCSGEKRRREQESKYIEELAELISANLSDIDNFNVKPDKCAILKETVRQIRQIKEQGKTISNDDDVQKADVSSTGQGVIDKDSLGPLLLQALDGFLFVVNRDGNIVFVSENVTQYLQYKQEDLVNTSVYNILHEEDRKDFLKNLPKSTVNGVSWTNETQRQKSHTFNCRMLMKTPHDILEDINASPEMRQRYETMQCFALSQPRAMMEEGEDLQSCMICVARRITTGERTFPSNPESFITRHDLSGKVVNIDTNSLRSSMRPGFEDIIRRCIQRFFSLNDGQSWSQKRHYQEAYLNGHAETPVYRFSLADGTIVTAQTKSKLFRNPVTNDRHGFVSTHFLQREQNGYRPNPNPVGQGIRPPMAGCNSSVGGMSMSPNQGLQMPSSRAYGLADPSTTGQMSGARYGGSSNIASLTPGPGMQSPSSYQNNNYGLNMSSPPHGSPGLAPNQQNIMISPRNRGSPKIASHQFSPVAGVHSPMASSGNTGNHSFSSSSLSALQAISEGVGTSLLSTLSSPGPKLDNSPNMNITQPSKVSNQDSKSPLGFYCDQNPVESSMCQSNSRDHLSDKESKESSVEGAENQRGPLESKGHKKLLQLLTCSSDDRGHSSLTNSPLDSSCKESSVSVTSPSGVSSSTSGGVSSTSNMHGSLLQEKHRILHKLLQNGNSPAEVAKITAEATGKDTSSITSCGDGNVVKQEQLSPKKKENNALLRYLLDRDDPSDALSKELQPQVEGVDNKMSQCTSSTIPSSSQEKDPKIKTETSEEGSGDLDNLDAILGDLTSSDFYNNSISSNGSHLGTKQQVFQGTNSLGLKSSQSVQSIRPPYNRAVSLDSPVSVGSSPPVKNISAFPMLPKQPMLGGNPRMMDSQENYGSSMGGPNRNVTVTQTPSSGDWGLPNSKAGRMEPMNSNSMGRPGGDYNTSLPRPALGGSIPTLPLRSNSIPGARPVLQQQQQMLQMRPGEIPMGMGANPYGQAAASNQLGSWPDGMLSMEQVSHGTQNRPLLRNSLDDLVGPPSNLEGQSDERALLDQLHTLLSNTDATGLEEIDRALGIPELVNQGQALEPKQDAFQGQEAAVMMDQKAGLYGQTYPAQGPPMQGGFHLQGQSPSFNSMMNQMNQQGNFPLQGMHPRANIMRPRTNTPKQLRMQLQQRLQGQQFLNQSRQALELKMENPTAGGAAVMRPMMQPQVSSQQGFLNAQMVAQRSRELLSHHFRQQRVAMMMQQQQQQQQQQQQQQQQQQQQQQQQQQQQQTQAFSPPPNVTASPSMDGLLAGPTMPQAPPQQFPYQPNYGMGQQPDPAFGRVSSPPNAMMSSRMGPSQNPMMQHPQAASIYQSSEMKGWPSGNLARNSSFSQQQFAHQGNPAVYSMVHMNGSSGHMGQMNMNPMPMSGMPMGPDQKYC
Sequence of LXRα (Q13133 whole entry): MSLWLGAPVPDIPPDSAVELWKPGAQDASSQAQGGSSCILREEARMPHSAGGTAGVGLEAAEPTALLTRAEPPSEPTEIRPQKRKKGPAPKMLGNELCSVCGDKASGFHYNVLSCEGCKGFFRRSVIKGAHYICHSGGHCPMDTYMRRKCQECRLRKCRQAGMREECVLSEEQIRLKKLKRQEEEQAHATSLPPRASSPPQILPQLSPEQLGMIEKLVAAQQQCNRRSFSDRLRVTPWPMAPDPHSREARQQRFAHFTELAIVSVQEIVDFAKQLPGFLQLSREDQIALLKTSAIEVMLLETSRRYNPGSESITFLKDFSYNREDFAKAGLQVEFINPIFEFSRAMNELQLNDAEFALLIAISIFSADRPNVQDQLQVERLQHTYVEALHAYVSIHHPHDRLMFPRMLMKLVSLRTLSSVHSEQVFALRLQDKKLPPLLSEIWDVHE
Sequence of mouse CAR (O35627 whole entry): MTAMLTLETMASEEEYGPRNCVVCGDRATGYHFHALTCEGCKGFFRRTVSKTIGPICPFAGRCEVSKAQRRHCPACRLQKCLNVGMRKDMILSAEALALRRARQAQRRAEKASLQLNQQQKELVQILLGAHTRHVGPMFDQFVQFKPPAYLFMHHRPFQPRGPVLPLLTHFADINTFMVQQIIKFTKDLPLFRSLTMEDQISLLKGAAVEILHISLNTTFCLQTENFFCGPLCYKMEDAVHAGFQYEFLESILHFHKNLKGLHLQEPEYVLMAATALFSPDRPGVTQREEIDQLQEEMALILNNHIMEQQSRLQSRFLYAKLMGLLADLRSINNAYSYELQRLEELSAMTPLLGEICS
Sequence of PPARδ (Q03181 whole entry, species assumed): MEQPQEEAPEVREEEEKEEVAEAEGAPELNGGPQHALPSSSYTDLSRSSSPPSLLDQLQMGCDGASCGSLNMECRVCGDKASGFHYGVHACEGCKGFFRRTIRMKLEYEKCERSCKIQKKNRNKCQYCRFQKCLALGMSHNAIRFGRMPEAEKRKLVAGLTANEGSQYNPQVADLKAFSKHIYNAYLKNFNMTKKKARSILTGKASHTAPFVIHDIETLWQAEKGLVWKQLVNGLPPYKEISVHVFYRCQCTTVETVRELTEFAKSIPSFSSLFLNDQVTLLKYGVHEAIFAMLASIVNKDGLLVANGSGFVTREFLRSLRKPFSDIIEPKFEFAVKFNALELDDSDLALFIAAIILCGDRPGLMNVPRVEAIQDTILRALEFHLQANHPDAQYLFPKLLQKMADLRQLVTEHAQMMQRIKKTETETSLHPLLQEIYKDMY
Sequence of RARβ (P10826 whole entry, species assumed, the tested form may be a part): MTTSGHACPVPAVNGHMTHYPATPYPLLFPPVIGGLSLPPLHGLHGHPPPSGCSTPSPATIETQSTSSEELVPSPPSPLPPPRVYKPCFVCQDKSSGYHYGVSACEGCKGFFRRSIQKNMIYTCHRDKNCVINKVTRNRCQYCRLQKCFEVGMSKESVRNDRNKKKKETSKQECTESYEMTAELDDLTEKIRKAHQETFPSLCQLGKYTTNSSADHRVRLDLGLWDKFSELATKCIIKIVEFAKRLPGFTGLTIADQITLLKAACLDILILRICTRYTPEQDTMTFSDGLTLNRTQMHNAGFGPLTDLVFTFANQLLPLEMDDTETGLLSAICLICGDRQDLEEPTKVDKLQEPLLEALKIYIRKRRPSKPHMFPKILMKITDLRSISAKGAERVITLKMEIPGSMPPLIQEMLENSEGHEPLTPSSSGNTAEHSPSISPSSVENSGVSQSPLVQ
Sequence of PPARγ (P37231 whole entry, species assumed): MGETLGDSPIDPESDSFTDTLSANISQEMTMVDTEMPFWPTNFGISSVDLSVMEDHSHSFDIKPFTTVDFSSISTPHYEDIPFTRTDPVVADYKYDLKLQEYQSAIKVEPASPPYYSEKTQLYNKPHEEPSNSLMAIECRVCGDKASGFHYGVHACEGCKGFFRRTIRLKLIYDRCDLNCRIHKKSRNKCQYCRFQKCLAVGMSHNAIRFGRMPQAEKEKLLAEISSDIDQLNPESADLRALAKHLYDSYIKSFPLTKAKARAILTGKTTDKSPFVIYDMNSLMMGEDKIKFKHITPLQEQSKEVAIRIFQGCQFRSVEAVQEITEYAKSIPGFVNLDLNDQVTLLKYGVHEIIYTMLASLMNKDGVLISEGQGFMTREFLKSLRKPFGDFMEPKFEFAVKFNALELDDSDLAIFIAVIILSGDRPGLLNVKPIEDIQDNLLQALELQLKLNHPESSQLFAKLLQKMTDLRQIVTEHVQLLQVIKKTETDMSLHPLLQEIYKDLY
Sequence of FXR (Q96RI1 whole entry, species assumed): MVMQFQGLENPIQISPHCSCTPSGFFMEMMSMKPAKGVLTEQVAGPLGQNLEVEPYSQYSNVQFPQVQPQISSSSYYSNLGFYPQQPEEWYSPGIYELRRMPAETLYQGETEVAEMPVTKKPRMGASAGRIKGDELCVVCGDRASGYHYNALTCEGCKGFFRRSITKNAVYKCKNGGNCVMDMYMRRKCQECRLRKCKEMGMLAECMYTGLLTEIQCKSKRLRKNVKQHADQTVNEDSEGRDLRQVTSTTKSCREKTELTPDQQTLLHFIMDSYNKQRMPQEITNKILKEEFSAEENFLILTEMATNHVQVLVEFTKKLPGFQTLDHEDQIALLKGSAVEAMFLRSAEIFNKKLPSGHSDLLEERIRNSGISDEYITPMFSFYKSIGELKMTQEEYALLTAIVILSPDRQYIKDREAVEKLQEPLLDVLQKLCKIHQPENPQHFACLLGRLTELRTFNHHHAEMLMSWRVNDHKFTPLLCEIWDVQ
Sequence of hLRH-1 LBD / SRC-3 receptor interaction domain (O00482 300-539 limits assumed): as the sequence (O00482 300-539 limits assumed) above
Sequence of hLRH-1 LBD / SRC-3 receptor interaction domain (Q9Y6Q9 whole entry partner, the tested form may be a part): as the sequence (Q9Y6Q9 whole entry partner, the tested form may be a part) above

CCCCCCCCCCC(=O)OCC(COP(=O)([O-])OCC[N+](C)(C)C)OC(=O)CCCCCCCCCC (stereo not drawn) [DUPC, diundecanoylphosphatidylcholine]
increase of LRH-1 transactivation of the native mouse SHP promoter (LRH-1 [1]): approximately 2 fold | activation or inhibition of LXRα (LXRα): did not activate or inhibit | hepatic expression of Cyp7A1 [2]: significantly induced | hepatic expression of Cyp8B1 [2]: significantly induced | hepatic expression of SHP [2]: repressed | hepatic expression of mSR-BI [2]: significantly induced | activation or inhibition of RXRα (RXRα): did not activate or inhibit | activation or inhibition of PPARγ (PPARγ): did not activate or inhibit | activation or inhibition of human CAR (human CAR): did not activate or inhibit | activation or inhibition of RARβ (RARβ): did not activate or inhibit | interaction of GST-LRH1 with SRC-3 (GST-hLRH-1 LBD / SRC-3; GST pulldown, 100 μM): further increased | increase of SRC-3 binding (GST-hLRH-1 LBD / SRC-3; PhosphorImager quantitation): approximately 3 fold | interaction of hLRH-1 LBD with SRC-3 RID [3]: stimulated | mouse LRH-1 response versus human LRH-1 (mouse LRH-1): essentially equivalent responses | response with the Oct4 promoter (LRH-1 [4]; COS-1 cells, Oct4-PP Luc): induced a similar response | activation of Oct4-PPmut Luc (LRH-1 [4]; point mutations in the DR0 element): eliminates activation | liver bile acids (wild type male mice): somewhat lower | serum bile acid levels (wild type male mice): substantially elevated | serum free fatty acids (wild type male mice): decreased levels | serum glucose levels (wild type male mice): decreased serum glucose levels | total bile acid pool (wild type male mice): significant increase | LRH-1 transactivation (luciferase) (LRH-1 [5]; 100 μM): responses | EC50 (LRH-1 [5]; reporter gene, dose response 1-250 μM, read-out: EC50 for activation of hLRH-1): ~60 µM and 57 µM | activation or inhibition of FXR (FXR): did not activate or inhibit | LRH-1 Luc luciferase activity (LRH-1 [6]): increased luciferase | SF-1 activation (SF-1): activate SF-1 | hepatic gene expression response when LRH-1 gene removed by Cre (LRH-1 [7]): not observed; also recorded: completely absent | activation or inhibition of PPARδ (PPARδ): did not activate or inhibit | activation or inhibition of mouse CAR (mouse CAR): did not activate or inhibit | activation or inhibition of ERα (ERα): did not activate or inhibit | activation or inhibition of PPARα (PPARα): did not activate or inhibit | activation or inhibition of human PXR (human PXR): did not activate or inhibit | activation or inhibition of TRβ (TRβ): did not activate or inhibit | LRH-1 transactivation response (LRH-1 [8]): similar, but lesser responses | expression of Cyp8B1 (LRH-1 target Cyp8B1; C3A/HepG2 cells or cells with non-target control siRNAs): modestly but significantly induced | Cyp8B1 response when LRH-1 expression is knocked down (LRH-1 target Cyp8B1; siRNA hLRH-1): lost
